Tested on: MCF-7 xenograft
Assay: RPPA of protein expression, MCF-7 xenograft endpoint analysis
Format: in vivo, nude mice
Conditions: 4 mg/kg/day vs. PBS
Experimental: Frozen xenograft tissue samples were embedded in OCT, and 8 μm sections were obtained using a cryostat. […] The resulting whole tissue lysates were boiled for 8 min at 100° C. and then printed onto a nitrocellulose slide (Avid, Grace Biolabs) along with a BSA protein concentration curve to estimate total protein concentration in each lysate. Total protein levels were assessed in each sample by staining with Sypro Ruby Protein Blot Stain (Invitrogen) according to manufacturer's instructions.
The total protein concentration in each sample was estimated by printing onto a nitrocellulose slide along with a BSA standard concentration curve, and total protein levels were assessed by staining with Sypro Ruby Protein Blot Stain (Invitrogen) according to manufacturer's instructions. Tissue lysates were diluted to 250 μg/ml in extraction buffer and stored at −80° C. prior to printing of arrays. RPPA printing and analysis of xenograft samples was conducted as previously described (Wulfkuhle et al., Clin Cancer Res. 2012; 18:6426-35). Antibody staining intensities were quantified using the MicroVigene v5 Software Package (Vigenetech). Signaling pathway activation was evaluated by staining the arrays with 156 antibodies against signaling endpoints, mainly phosphorylated and cleaved protein products. Before use for RPPA analysis, antibody specificity was confirmed by Western blot and analysis as previously described (Wulfkuhle et al., Clin Cancer Res. 2012; 18:6426-35).

[1] = *separate RPPA analysis, separate β actin probe

CCCCCCNC(=N)NC(=N)NCc1ccccc1 [HBB, N1-hexyl-N5-benzyl-biguanide]
fold change: 4EBP1 S65: 1.051 | fold change: 4EBP1 T37/46: 1.261 | fold change: 4EBP1 T70: 0.595 | fold change: A-Raf S299: 0.862 | fold change: AKT S473: 1.042 | fold change: AKT T308: 0.793 | fold change: ALK: 1.079 | fold change: ALK Y1604: 0.954 | fold change: AMPKalpha S485: 1.126 | fold change: AMPKbeta S108: 0.665 | fold change: ATF2 T69/71: 0.713 | fold change: ATM S1981: 1.034 | fold change: ATP CItrate Lyase S454: 1.000 | fold change: ATR S428: 0.810 | fold change: AXL: 0.566 | fold change: Acetyl-CoA Carboxylase S79: 0.927 | fold change: Actin beta: 1.000 | fold change: Aurora A T288/B T232/C T198: 0.646 | fold change: B-RAF: 1.130 | fold change: B-Raf S445: 0.764 | fold change: BAD: 2.424 | fold change: BAD S112: 0.833 | fold change: BAD S136: 0.958 | fold change: BCL-2: 0.825 | fold change: BIM: 0.727 | fold change: Bak: 0.789 | fold change: Bax: 0.807 | fold change: Bcl_xL: 0.909 | fold change: Beclin 1: 0.881 | fold change: CREB S133: 0.626 | fold change: Chk1 S345: 1.290 | fold change: Cl Caspase 3 D175: 1.109 | fold change: Cl Caspase 9 D315: 1.151 | fold change: Cl Caspase 9 D330: 1.244 | fold change: Cleaved PARP D214: 1.277 | fold change: Cofilin S3: 0.443 | fold change: CrkL Y207: 0.962 | fold change: Cyclin A: 1.779 | fold change: Cyclin B1 V152: 1.197 | fold change: Cyclin D1 (G124-326): 1.277 | fold change: Cyclin D1 T286: 0.611 | fold change: E-Cadherin: 0.669 | fold change: EGFR: 0.857 | fold change: EGFR Y992: 0.803 | fold change: EGFR Y1068: 1.089 | fold change: EGFR Y1148: 0.891 | fold change: EGFR Y1173: 0.954 | fold change: ER TOTAL: 1.687 | fold change: ER alpha S118: 0.964 | fold change: ERK 1-2 T202/Y204: 0.423 | fold change: ERK TOTAL: 0.791 | fold change: Elk S383: 1.402 | fold change: Ephrin A3 Y799/A4 Y799/A5 Y833: 1.149 | fold change: ErbB2/HER2 Y877: 0.951 | fold change: ErbB2/HER2 Y1248: 1.239 | fold change: ErbB3/HER3: 0.851 | fold change: ErbB3/HER3 Y1197: 1.223 | fold change: ErbB3/HER3 Y1289: 1.268 | fold change: FADD S194: 0.672 | fold change: FAK Y576/577: 1.021 | fold change: FKHR T24/FKHRL1 T32: 0.698 | fold change: FKHRL1 S253: 0.960 | fold change: FOXO1 S256: 0.854 | fold change: GRB2: 0.830 | fold change: GSK-3alpha/beta S21/9: 0.791 | fold change: HIF-1 alpha: 2.406 | fold change: HSP27 S82: 0.877 | fold change: HSP70: 1.453 | fold change: HSP90a T5/7: 0.945 | fold change: Heregulin: 20.774 | fold change: Histone H3 S28: 0.898 | fold change: IGF1R Y1135/36-IR Y1150/51: 1.101 | fold change: IGF-1R Y1131/IR Y1146: 1.019 | fold change: IGFBP7: 0.992 | fold change: IL6: 1.260 | fold change: IRS1: 1.014 | fold change: IRS-1 S612: 0.952 | fold change: IkappaB-alpha S32/36: 1.130 | fold change: Insulin Receptor Beta: 1.261 | fold change: Jak2 Y1007: 0.881 | fold change: KI67: 0.731 | fold change: LC3B: 1.097 | fold change: LIMK1 T508/LIMK2 T505: 0.795 | fold change: LKB1 S428: 1.269 | fold change: MARCKS S152/156: 1.071 | fold change: MCSFR Y723: 1.228 | fold change: MDM2 S166: 0.868 | fold change: MEK 1/2 S217/221: 0.770 | fold change: Met Y1234/1235: 1.033 | fold change: Musashi: 0.898 | fold change: NF-kappaB p65 S536: 0.817 | fold change: PAK1 S199/204-PAK2 S192/197: 1.221 | fold change: PAK1 T423/PAK2 T402: 1.028 | fold change: PDGFR alpha Y754: 1.144 | fold change: PDGFR beta: 0.705 | fold change: PDGFR beta Y716: 0.887 | fold change: PDK1 S241: 0.712 | fold change: PDL1: 34.857 | fold change: PKA C T197: 0.907 | fold change: PKC delta/theta S643/S676: 0.671 | fold change: PLK1 T210: 1.018 | fold change: PTEN: 0.726 | fold change: PTEN S380: 0.783 | fold change: PUMA: 0.919 | fold change: RAS TOTAL: 1.543 | fold change: Ras_GRF1: 1.021 | fold change: Rb S780: 0.674 | fold change: Ret Y905: 0.810 | fold change: Ros Y2274: 1.201 | fold change: S6 Ribosomal Protein S240/244: 0.817 | fold change: SAPK/JNK T183/Y185: 1.033 | fold change: SGK1 S78: 1.318 | fold change: SMAD2 S245/250/255: 0.760 | fold change: STAT3 S727: 1.040 | fold change: Shc Y317: 0.792 | fold change: Smad1 Ser463/465-Smad5 Ser463/465-Smad9 Ser465/467: 0.900 | fold change: Src Y527: 0.675 | fold change: Src family Y416: 0.471 | fold change: Stat 1 Y701: 0.937 | fold change: Stat3 Y705: 0.936 | fold change: Stat 5 Y694: 0.558 | fold change: TGF-beta: 0.952 | fold change: TNF alpha: 1.186 | fold change: Tuberin/TSC2 Y1571: 1.208 | fold change: VEGFR2 Y996: 0.828 | fold change: Vimentin: 0.896 | fold change: XIAP: 0.835 | fold change: c-Abl T735: 0.776 | fold change: c-Abl Y245: 0.846 | fold change: c-ErbB2/HER2: 1.938 | fold change: c-Kit Y703: 4.550 | fold change: c-Met TOTAL: 0.877 | fold change: c-Myc: 0.879 | fold change: c-Raf S338: 1.016 | fold change: eIF4G S1108: 0.791 | fold change: eNOS/NOS III S116: 0.902 | fold change: mTOR S2448: 1.034 | fold change: p27 Kip1: 0.925 | fold change: p27 T187: 0.685 | fold change: p38 MAP Kinase T180/Y182: 1.011 | fold change: p53: 0.997 | fold change: p53 S15: 0.990 | fold change: p70S6 Kinase: 0.674 | fold change: p70 S6 Kinase S371: 0.762 | fold change: p70 S6 Kinase T389: 0.773 | fold change: p70 S6 Kinase T412: 0.998 | fold change: p90RSK S380: 1.016 | fold change: p90RSK T359/S363: 0.884 | fold change: pYAP S127: 0.931 | fold change: AMPK T172* [1]: 0.598 | fold change: AMPK total* [1]: 1.69 | fold change: PKM2 Y105* [1]: 2.13 | fold change: PKM2 total* [1]: 1.01
